These results are taken from patent publication US20120232251A1, “GLUCOSE SENSOR” (King's College London, priority 2009, published 2012).

Read-outs that look alike come from different tables or passages of the source.

The conditions of test [1]: cited from earlier work.
For test [2] the following is noted: cited from earlier work; for fluorescence change: autofluorescence of the protein; for Kd: monitored by the autofluorescence of GBP [32], read-out: Kd for glucose.
Test [3] is described as follows: Steady-state fluorescence intensity response of badan-labelled GBP mutants to glucose in PBS. The format is binding. The note with it: for Δ Fluorescence (%) (maximal change in fluorescence intensity with addition of glucose) / Kd: badan-labelled GBP mutant; for Δ Fluorescence (%) (maximal change in fluorescence intensity with addition of glucose): PBS, saturating glucose; for Kd: in PBS, read-out: Kd (mM) binding constant for glucose; for change in fluorescence intensity on glucose addition (in words): increasing glucose, up to 1M. How it is done:
(§1) To label GBP mutants with badan, 50 μM protein was dissolved in 5 mM Tris(2-carboxyethyl)phosphine in phosphate-buffered saline (PBS) pH 7.4, and then a 10-fold excess of dye (500 μM) was added and the mixture incubated overnight at 4° C., after which it was purified on a Sephadex G-25 gel-filtration column.
Steady-state fluorescence intensity was recorded on a Perkin-Elmer LS50B fluorimeter (Perkin Elmer Instruments, Beaconsfield, UK). The excitation and emission wavelengths of badan were 400 and 550 nm respectively. All data were obtained at room temperature using quartz cuvettes with sample volume of 100 μL. The labelled protein was incubated with increasing amounts of D-glucose for 15-20 min at room temperature before fluorescence was recorded.
The binding constant, Kd, was calculated from the sigmoidal dose-response curves using Prism 5 software (GraphPad, San Diego, Calif., USA). Lifetime values were obtained from fluorescence transients using the TR12 analysis package (courtesy of Dr. Paul Barber, Gray Cancer Institute of Radiation Oncology and Biology, Oxford University, Oxford, UK). Global analysis was applied to the entire data set of twelve transients as described for the H152C mutant previously.

A short description of test [4]: Steady-state fluorescence intensity response of badan-labelled GBP mutant to glucose in serum. It counts as binding. How it is done:
as §1
Venous blood samples from healthy volunteers were collected in Vacuette tubes. The specimens were incubated at room temperature for 4 days to allow blood clotting and glycolysis. The samples were then centrifuged at 3500 g for 20 min and serum removed, pooled and stored until use. The glucose concentrations of serum samples were determined using a hexokinase-based assay (Sigma).
Steady-state fluorescence intensity was recorded on a Perkin-Elmer LS50B fluorimeter (Perkin Elmer Instruments, Beaconsfield, UK). The excitation and emission wavelengths of badan were 400 and 550 nm respectively. […] The labelled protein was incubated with increasing amounts of D-glucose for 15-20 min at room temperature before fluorescence was recorded.
The binding constant, Kd, was calculated from the sigmoidal dose-response curves using Prism 5 software (GraphPad, San Diego, Calif., USA). Lifetime values were obtained from fluorescence transients using the TR12 analysis package (courtesy of Dr. Paul Barber, Gray Cancer Institute of Radiation Oncology and Biology, Oxford University, Oxford, UK). […]

Setting [5] is: prior-art reports, read-out: Kd / binding constant for glucose.

For the substance “A213R: GBP having a single mutation of A213R (Amiss et al)”, the Kd in test [1] (Amiss et al 2007, read-out: glucose affinity) was about 1000 µM.
On to “D14E/F16A: GBP two-mutant D14E/F16A, monitored by autofluorescence (Sakaguchi-Mikami et al)”, for which, in test [2], the fluorescence change result is given as “about 10%” and the Kd is 3900 µM.
In the case of “E149C A213R L238S: GBP triple mutant coupled to the IANBD fluorophore (Amiss et al)”, the “change in fluorescence intensity upon glucose binding (in words)” value in test [1] (coupled to the IANBD fluorophore, Amiss et al) is reported as “fifty percent”.
Turning to “E149C/A213C/L238S(GGBP): GGBP triple mutant attached to Nile red (Thomas et al 2006)”, the “change (maximal increase) in fluorescence intensity on addition of glucose” value is reported as 50% in test [1] (prior-art reports) and “about 50%” in test [1] (prior-art reports, listed as GBP attached to Nile red). In addition, the Kd in test [1] (setting [5]) is 7000 µM.
For “E149C/A213S/L238S: GGBP triple mutant reported by Hsieh et al”, the Kd in test [1] (setting [5]) was 500 µM.
Regarding “F16A: GBP mutant F16A, monitored by autofluorescence (Sakaguchi-Mikami et al)”, in test [2], the fluorescence change result is on record as “about 10%” and the Kd is 200 µM.
Consider “GBP: unmutated glucose/galactose binding protein of E. coli”, for which, in test [2], the Kd is 0.2 µM.
With “H152C/A213R/L238S: E. coli glucose/galactose binding protein triple mutant labelled at cysteine 152 with badan”, the “Δ Fluorescence (%) (maximal change in fluorescence intensity with addition of glucose)” value was found to be 200% in test [3] and 180% in test [4]. Further, the Kd in test [3] was determined as 11 mM; in test [4] (read-out: Kd (mM) binding constant for glucose) it was 14 mM.
Turning to “H152C/A213R: GBP double mutant labelled at 152C with badan”, in test [3], the “Δ Fluorescence (%) (maximal change in fluorescence intensity with addition of glucose)” value is about 500% and the Kd was 0.6 mM.
Consider “H152C/F16A: GBP double mutant labelled at 152C with badan”, for which the “binding of glucose (in words)” value in test [3] (badan-labelled) is recorded as “abolished the binding of glucose”. Moreover, in test [3], the “Δ Fluorescence (%) (maximal change in fluorescence intensity with addition of glucose)” value was found to be 0%. The “change in fluorescence intensity on glucose addition (in words)” value in test [3] (badan-labelled, listed as F16A mutation with H152C) is recorded as “no change of fluorescence intensity”; in test [3] (badan-labelled, listed as F16A/H152C-badan) it was “no change in fluorescence”.
For the substance “H152C/L238S: GBP double mutant labelled at 152C with badan”, in test [3], the “Δ Fluorescence (%) (maximal change in fluorescence intensity with addition of glucose)” value is 200% and the Kd came to 0.6 mM.
Regarding “L238S: GBP mutant L238S previously reported”, in test [1] (previously reported [31]), the “weakening of the binding of glucose to GBP” value was “ten-fold”.
In the case of L255C: GGBP mutant L255C (Ge et al), the “Kd / binding constant for glucose (in words)” value in test [1] (prior-art reports) is on record as “micromolar range”.
As for “Q26C: GGBP with Gln at position 26 mutated to Cys (Tolosa et al)”, in test [1] (prior-art reports), the “Kd / binding constant for glucose (in words)” value is reported as “micromolar range”.
